# Data reported in patent US8703769B2, “Use of EGFR inhibitors to prevent or treat obesity” (The University of North Carolina at Chapel Hill, priority 2005, dated 2014).
# Tests used:
# Format in all cases: in vivo
# EGFR [1] = target: T1, EGFR (Mus musculus, UniProt Q01279); assay: Already obese B6 male mice on HFD switched to HFD+INH (Example 4); settings: n=4 per group
# T1 construct: from tissue; host or cells: whole animal: wild-type C57BL/6J male mice
# Protocol: (§1) Diets: A base Western Diet (D12079B, Research Diets, Inc., New Brunswick, N.J., U.S.A.) having 41% fat (kcal) was used in all studies, and is designated HFD. The small molecule inhibitor AG1478 (LC Laboratories, Woburn, Mass., U.S.A.) was added to this base diet to a final concentration of […]. This diet is designated HFD+INH.
# (§2) In experiments using wild-type C57BL6/J (B6) mice, male mice were housed individually and were started on the diet experiments at 8 weeks of age. In Example 2, mice were maintained on the HFD or HFD+INH for 1 month. In Example 3, mice were maintained on the HFD (n=8) or HFD+INH (n=8) for 6 months. In Example 4, all mice were placed on the HFD for 3 months; after this time, Group 1 (n=4) was placed on HFD+INH, while Group 2 (n=4) was maintained on HFD.
# (§3) Clinical chemistry: Non-fasted blood glucose levels were measured at baseline and monthly using the FREESTYLE® blood glucose monitor (Abbott Laboratories, Abbott Park, Ill., U.S.A.) which was calibrated per manufacturer's instruction prior to use. All measurements were taken from 4-5 pm. At sacrifice, blood was collected by retro-orbital bleed and serum was isolated. Serum concentrations of triglycerides and total cholesterol were measured using an automatic blood chemical analyzer (Johnson & Johnson, New Brunswick, N.J., U.S.A.) by the University of North Carolina at Chapel Hill Animal Clinical Chemistry and Gene Expression Laboratories Core.
# (§4) Body composition analysis: On the day of analysis, mice were weighed, anaesthetized with 2-3% isofluorane, and body composition was determined with a PIXIMUS II™ Mouse Densitometer (GE Medical Systems, distributed by Faxitron X-Ray Corporation, Wheeling, Ill., U.S.A.) using software versions 1.46 and 2.10. These measurements were taken at baseline and monthly during the diet studies. The Dual-energy X-ray absorptiometry (DEXA) method of determining body composition and body fat has been validated in lean and obese mice (Brommage (2003) J Physiol Endocrinol Metab 285: E454-459).
# (§5) Statistical analysis: Results are expressed as mean+/−STD. A two-sided unpaired student's t-test was used for preliminary statistical analysis.
# In order to assess whether EGFR inhibitors can effect weight loss or stasis in an already obese subject, obese mice were administered an EGFR inhibitor and body mass and chemistry measurements made over time while maintaining a HFD. Specifically, baseline measurements were taken of 2 month-old male B6 mice, which were then housed individually and placed on a HFD for 2 months. Body weights, blood glucose, and percent body fat were assessed at this time point, and mice were randomly assigned to two groups. Group 1 (Grp1) was continuously fed the HFD, while Group 2 (Grp2) was switched to the HFD+INH after the initial two months. Measurements were again assessed at 1 and 3 months after the diet switch (experimental month 3 and 5). All mice were sacrificed at month 5. At sacrifice, blood was collected for clinical chemistry and heart, liver and fat depots were dissected and weighed. A two-sided unpaired student's t-test was used for preliminary statistical analysis.
# EGFR [2] = target: T1, EGFR; assay: High fat diet with or without AG1478 for 6 months, B6 male mice (Example 3)
# Protocol: as §1, §2, §3, §4, §5
# In order to determine if the short-term effects on weight gain due to the inhibitor action were applicable over a longer time period, the experiments of Example 2 were extended over six months.
# Baseline measurements (body weights, blood glucose, and percent body fat) were taken of 2-month-old male C57 BL/6J (B6) mice which were then housed individually and randomly assigned to receive either HFD or HFD+Inhibitor A (AG 1478). Measurements were again assessed at 1, 2 and 6 months of treatment. All mice were sacrificed at month 6. At sacrifice, blood was collected for clinical chemistry. Heart, liver and fat depots were also dissected and weighed. A two-sided unpaired student's t-test was used for preliminary statistical analysis.
# EGFR [3] = target: T1, EGFR; assay: High fat diet with or without AG1478 for about 1 month, C57BL/6 male mice (Example 2); settings: for accumulation of adipose tissue (percent body fat by DEXA): C57BL/6 male mice, HFD + AG1478 (144 ppm in diet) vs HFD alone, FIGS. 9-12
# Protocol: as §1, §2, §3, §4, §5
# FIGS. 9-12 depict the results of C57BL/6 male mice exposed either to a high fat diet (HFD; […]) or the HFD base diet plus the EGFR small molecule inhibitor AG1478 (144 ppm) for about 1 month. The mice were approximately 6 weeks old when started on the dietary study. Male littermates were housed together, so the data are shown as the mean per cage. There is an n of […] for the mice on the HFD+inhibitor (INH), with two test groups of 6 (HFD+INH1 and HFD+INH2) and an n of 4 for the HFD cage.
# [4] = between treatment groups at sacrifice (month 5), FIG. 20B
# [5] = between treatment groups, FIG. 21
# [6] = HFD+inhibitor A vs HFD alone, six months, n=8 per group, FIG. 14
# [7] = plasma after 6 months, 7-8 mice per group, HFD+Inhibitor A vs HFD, FIG. 17
# T1 sequence (Q01279 25-1210): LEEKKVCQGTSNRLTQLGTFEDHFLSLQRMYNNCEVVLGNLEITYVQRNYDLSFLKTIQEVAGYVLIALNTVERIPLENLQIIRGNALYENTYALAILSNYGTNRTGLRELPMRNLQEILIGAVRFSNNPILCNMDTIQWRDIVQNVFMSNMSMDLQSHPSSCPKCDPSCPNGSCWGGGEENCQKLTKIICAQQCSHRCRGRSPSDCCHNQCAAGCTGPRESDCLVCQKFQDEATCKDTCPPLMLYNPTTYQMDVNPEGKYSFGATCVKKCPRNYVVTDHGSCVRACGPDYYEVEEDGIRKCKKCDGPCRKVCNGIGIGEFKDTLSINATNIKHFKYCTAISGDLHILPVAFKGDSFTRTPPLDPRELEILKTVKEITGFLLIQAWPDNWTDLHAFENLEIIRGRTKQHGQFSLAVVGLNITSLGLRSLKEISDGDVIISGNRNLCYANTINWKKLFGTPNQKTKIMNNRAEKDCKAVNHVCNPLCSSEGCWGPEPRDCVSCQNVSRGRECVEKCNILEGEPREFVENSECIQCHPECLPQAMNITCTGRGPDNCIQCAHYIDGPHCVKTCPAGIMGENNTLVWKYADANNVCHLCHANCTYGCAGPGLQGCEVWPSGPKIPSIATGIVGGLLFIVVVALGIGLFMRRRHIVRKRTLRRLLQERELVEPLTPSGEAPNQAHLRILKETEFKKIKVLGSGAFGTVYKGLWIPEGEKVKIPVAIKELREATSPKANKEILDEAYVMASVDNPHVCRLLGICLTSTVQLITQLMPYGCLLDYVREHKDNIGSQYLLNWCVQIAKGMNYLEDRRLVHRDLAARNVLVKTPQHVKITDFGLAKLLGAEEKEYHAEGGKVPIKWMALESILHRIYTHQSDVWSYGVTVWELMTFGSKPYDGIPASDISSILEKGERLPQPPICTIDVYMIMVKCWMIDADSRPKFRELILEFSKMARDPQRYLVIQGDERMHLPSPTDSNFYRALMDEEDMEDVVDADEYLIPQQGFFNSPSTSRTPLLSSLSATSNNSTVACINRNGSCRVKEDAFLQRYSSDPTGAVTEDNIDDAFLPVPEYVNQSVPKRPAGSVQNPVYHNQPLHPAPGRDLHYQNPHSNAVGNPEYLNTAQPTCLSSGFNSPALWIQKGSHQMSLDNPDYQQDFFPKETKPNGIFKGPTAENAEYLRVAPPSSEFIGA
compound,measurement,setting,value
"COc1cc2ncnc(Nc3cccc(Cl)c3)c2cc1OC [AG1478, 4-(3-Chloroanillino)-6,7-dimethoxyquinazoline]",percent increase in BW relative to BW at 2 months on HFD,"EGFR [1]; Group 2 (HFD+Inhibitor A) vs Group 1 (HFD), after 1 and 3 months on HFD+Inhibitor A, p<0.02, FIG. 18",significantly lower
same,"percent increase in BF (H), body fat by DEXA relative to time of diet change","EGFR [1]; Group 2 vs Group 1, after 3 months on HFD+Inhibitor A, p<0.02, FIG. 19",significantly lower
same,fat depot weights,"EGFR [1]; between treatment groups at sacrifice (month 5), FIG. 20A",No significant differences
same,heart weight,EGFR [1]; [4],No significant differences
same,liver weight,EGFR [1]; [4],No significant differences
same,blood glucose level,EGFR [1]; [5],no significant differences
same,total cholesterol level,EGFR [1]; [5],no significant differences
same,triglyceride level,EGFR [1]; [5],no significant differences
same,body weight (BW),"EGFR [2]; B6 male mice, HFD+inhibitor A vs HFD alone, 6 months, n=8 per group, FIG. 13",significantly decreased
same,percent body fat as assessed by DEXA,"EGFR [2]; B6 male mice, HFD+inhibitor A vs HFD alone, 6 months, n=8 per group, p<0.001, FIG. 13",significantly decreased
same,fat mass,EGFR [2]; [6],decreased
same,lean body mass,EGFR [2]; [6],no change
same,gross heart weight,"EGFR [2]; after 6 months, HFD+Inhibitor A vs HFD, FIG. 16",no significant differences
same,gross liver weight,"EGFR [2]; after 6 months, HFD+Inhibitor A vs HFD, p<0.02, FIG. 16",significantly reduced
same,"fat mass in the four major fat depots (intraperitoneal, intrascapular, kidney, perigonadal)","EGFR [2]; dissection after 6 months, HFD+Inhibitor A vs HFD, FIG. 15",decreased fat mass in all four major fat depots
same,total cholesterol level,EGFR [2]; [7],significantly lower
same,triglyceride level,EGFR [2]; [7],significantly lower
same,accumulation of adipose tissue (percent body fat by DEXA),EGFR [3]; about 1 month,reduction in adipose tissue accumulation
same,accumulation of adipose tissue (percent body fat by DEXA),"EGFR [3]; about 1 month, listed as AG 1478",successfully inhibited the accumulation of adipose tissue
same,body weight gain,"EGFR [3]; HFD+INH vs HFD control mice, one month, FIG. 11",gained less body weight
same,food consumption per mouse per day,"EGFR [3]; HFD+INH vs HFD, about 1 month, estimated from total food remaining per day, FIG. 10",no significant difference
